Assay results: patent US5352587A, “Compositions and methods for the synthesis of natriuretic protein receptor B and methods of use” (Genentech, Inc., priority 1991, dated 1994)
One block for each molecule: values may come before it. Ends that are not written are not given here.

Tests used:
[1] = test system: active site of protein kinases; conditions: literature refs 12, 13; cited from earlier work
[2] = target: 130 kDa ANP receptor-GC from adrenal glomerulosa; conditions: literature refs 10, 11; cited from earlier work
[3] = target: T1, NPRB lacking its kinase and guanylyl cyclase domains (BDKC) (Homo sapiens, UniProt P20594); assay: Scatchard analysis of binding to 293 cells expressing NPRB less the kinase and cyclase domains (BDKC); conditions: two hours at room temperature (21° C.), LIGAND program, read-out: dissociation constant (Kd)
T1 construct: expressed in transfected cells
T1 sequence (P20594 23-501): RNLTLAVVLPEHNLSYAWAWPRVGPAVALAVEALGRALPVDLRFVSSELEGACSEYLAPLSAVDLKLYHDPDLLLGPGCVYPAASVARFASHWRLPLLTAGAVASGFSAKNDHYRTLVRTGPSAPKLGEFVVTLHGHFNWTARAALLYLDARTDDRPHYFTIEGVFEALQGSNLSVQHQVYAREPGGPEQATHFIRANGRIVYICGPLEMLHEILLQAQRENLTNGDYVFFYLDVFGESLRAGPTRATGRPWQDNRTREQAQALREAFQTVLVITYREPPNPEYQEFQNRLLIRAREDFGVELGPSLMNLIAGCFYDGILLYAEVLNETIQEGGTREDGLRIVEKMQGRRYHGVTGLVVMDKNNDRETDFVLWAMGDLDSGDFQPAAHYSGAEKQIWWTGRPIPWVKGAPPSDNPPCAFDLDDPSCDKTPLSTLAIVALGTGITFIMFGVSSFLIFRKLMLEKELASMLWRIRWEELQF
From the text: Scatchard analysis was used to determine the binding affinities of the natriuretic peptides for NPRB. An expression vector using pRK was constructed such that the NPRB lacked its kinase and guanylyl cyclase domains. This mutation was effected by introduction of a termination codon at condo 480 of the mature NPRB protein. A recombinant cell line expressing NPRB less the kinase and cyclase domains (BDKC) was developed by calcium phosphate transfection of 293 cells as described above. These stable cell lines were screened for expression of BDKC by binding of porcine BNP which contained 26 amino acids (^125 l-pBNP[26]). […] Binding was allowed to proceed to equilibrium by incubation for two hours at room temperature (21° C.), the bound ^125 l-pBNP(26) was separated from unbound by centrifugation for 7 minutes at 4° C. The supernatant was aspirated and the cell pellet was counted in a gamma counter for ^125 l quantitation. Background binding was subtracted from total binding to give specific binding and the specific binding vs. dose of ^125 l-pBNA data was analyzed by the LIGAND program of Munson and Rodbard (Analytical Biochemistry 107, 220-239 [1980]). The results shown are in FIG. 5.

soluble NPRB = assay: Binding to soluble NPRB extracellular domain (1-433) in concentrated conditioned medium; design: species or system human
Protocol: Soluble extracellular domain of NPRB was engineered by introducing a translation termination codon at position 434 to produce the 1-433 fragment of the NPRB sequence illustrated in FIG. 1. A stable cell line was developed in 293 cells as described for 293NPRBDKC, and clones were screened by binding of ^125 lBNP to receptor in condition medium. Control 293 cells or the stable cell line 293BCF.15 (NPRB cell free) were plated 24 hours prior to the addition of serum free conditioned medium. Medium was left on the cells for 72 hours then collected for analysis of the […] synthesized. The media was vacuum filtered through a […] filter (Millipore Corp) then concentrated 8-fold by ultrafiltration on an Amicon Corp centriprep YM30 membrane. A 0.5 ml sample of concentrated conditioned media was incubated for one hour in the presence of 0.25 mCi of ^125 l-pBNP(26) (2462 Ci/mmole) with (background binding) or without (total binding) 1.2 mM pBNP(26). A 1.0 ml sample of activated charcoal solution (Fuller et al. J. Biol. Chem. 264, 14179-14184 [1989]) was added to absorb unbound label and recovered by centrifugation. The supernatant (1.4 ml) was removed for determination of ^125 l-pBNP bound to receptor by gamma counting. Specific binding was calculated from the difference between total binding minus background binding. […]

membrane GC = conditions: literature refs 14, 15; cited from earlier work

Molecule: N=C(N)NC(=O)c1nc(Cl)c(N)nc1N [amiloride]
- inhibition of ATP binding to the active site of protein kinases [1]: competitive inhibitor of ATP binding to the active site of protein kinases
- effect on receptor conformation and Kd for ANP [2]: change in receptor conformation and a lowering of the Kd for ANP

- Kd [3]: 66.7 pM
- Specific binding to soluble NPRB (soluble NPRB; 0.25 mCi ^125 l-pBNP(26), one hour, 8-fold concentrated conditioned medium): 31,837 cpm
Molecule: ^125 l-pBNP(26): porcine BNP which contained 26 amino acids, ^125 l labelled (DSGCFGRRLDRIGSLSGLGCNVLRRY; ends and bridges not checked; also: 125I label, position not given here; UniProt P07634 106-131, looked up)
- Specific binding due to the recombinant soluble receptor protein (difference from control 293 cells) (soluble NPRB; difference between soluble NPRB and control 293 cells): 29,177 cpm

Molecule: Nc1ncnc2c1ncn2[C@@H]1O[C@H](COP(=O)(O)OP(=O)(O)OP(=O)(O)O)[C@@H](O)[C@H]1O [ATP]
- effect on Vmax of membrane GC in response to ANP stimulation (membrane GC): increasing the Vmax of membrane GC in response to ANP stimulation
